Experiments:
elastin [1] = molecular target: T1, elastin (Homo sapiens, UniProt P15502); experiment: Turbidimetry binding analysis of TA and elastin; conditions: elastin 0.24 mg/mL, TA 17 mg/mL, 1:1
T1 sequence (P15502 27-786): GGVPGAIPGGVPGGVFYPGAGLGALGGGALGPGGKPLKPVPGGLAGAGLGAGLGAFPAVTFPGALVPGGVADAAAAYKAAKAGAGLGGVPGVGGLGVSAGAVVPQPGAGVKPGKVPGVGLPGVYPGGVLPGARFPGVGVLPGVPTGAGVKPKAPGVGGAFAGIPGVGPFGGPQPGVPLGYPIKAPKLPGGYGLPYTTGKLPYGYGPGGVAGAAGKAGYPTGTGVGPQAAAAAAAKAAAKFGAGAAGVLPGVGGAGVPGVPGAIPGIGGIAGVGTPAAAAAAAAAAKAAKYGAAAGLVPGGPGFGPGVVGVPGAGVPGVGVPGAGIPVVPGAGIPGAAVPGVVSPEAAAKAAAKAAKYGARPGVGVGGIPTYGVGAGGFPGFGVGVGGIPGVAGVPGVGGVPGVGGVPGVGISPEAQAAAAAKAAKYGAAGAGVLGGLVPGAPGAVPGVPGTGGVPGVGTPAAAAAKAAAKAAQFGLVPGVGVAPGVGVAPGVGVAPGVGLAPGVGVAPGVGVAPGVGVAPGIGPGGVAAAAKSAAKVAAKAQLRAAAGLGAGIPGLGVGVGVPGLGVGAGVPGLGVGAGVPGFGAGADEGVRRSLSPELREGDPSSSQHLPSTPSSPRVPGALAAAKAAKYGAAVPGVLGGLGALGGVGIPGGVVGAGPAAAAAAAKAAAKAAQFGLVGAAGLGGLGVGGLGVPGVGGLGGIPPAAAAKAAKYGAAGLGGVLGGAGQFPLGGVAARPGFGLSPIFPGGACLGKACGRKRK
Experimental: (§1) For turbidity analysis, each solution of elastin, type I collagen, HS and HA was prepared by diluting them in PBS at the concentration of 0.24 mg/mL. TA (17 mg/mL) was added to each solution at the volume ratio of 1:1, followed by mixing vigorously. Turbidity was measured at 600 nm using UV/vis spectrometer (HP8453, Hewlett-Packard, USA).

type I collagen [2] = molecular target: T2, type I collagen (Homo sapiens, UniProt P02452+P08123); experiment: Turbidimetry binding analysis of TA and type I collagen; conditions: type I collagen 0.24 mg/mL, TA 17 mg/mL, 1:1
T2 sequence (P02452 162-1218 limits assumed): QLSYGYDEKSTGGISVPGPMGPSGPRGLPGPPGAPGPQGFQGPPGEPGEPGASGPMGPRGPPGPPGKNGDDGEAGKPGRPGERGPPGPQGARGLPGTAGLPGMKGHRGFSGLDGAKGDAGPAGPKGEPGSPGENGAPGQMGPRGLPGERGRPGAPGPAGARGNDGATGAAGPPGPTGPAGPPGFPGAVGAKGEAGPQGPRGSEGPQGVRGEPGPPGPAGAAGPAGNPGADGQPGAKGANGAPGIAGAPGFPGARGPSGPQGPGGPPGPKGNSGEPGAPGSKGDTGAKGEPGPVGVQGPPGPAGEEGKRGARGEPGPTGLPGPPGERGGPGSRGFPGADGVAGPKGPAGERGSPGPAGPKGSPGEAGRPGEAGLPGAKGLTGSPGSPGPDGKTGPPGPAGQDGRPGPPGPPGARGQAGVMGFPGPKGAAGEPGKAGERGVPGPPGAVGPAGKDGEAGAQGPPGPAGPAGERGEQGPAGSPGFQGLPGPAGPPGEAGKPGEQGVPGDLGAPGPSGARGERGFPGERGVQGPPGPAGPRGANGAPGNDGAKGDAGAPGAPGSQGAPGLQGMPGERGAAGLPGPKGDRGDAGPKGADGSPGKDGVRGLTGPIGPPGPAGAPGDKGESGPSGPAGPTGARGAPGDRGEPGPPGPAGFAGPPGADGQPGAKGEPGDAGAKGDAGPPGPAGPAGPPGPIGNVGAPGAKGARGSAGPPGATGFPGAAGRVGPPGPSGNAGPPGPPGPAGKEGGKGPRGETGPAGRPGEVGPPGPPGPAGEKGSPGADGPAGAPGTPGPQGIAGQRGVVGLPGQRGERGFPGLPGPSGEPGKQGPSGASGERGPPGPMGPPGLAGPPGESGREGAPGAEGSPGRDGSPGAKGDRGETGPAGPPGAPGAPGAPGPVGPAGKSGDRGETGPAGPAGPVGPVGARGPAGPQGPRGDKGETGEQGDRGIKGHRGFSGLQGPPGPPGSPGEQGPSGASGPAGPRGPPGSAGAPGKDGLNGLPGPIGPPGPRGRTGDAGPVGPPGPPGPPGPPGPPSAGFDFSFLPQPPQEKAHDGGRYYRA
T2 sequence (P08123 80-1119 limits assumed): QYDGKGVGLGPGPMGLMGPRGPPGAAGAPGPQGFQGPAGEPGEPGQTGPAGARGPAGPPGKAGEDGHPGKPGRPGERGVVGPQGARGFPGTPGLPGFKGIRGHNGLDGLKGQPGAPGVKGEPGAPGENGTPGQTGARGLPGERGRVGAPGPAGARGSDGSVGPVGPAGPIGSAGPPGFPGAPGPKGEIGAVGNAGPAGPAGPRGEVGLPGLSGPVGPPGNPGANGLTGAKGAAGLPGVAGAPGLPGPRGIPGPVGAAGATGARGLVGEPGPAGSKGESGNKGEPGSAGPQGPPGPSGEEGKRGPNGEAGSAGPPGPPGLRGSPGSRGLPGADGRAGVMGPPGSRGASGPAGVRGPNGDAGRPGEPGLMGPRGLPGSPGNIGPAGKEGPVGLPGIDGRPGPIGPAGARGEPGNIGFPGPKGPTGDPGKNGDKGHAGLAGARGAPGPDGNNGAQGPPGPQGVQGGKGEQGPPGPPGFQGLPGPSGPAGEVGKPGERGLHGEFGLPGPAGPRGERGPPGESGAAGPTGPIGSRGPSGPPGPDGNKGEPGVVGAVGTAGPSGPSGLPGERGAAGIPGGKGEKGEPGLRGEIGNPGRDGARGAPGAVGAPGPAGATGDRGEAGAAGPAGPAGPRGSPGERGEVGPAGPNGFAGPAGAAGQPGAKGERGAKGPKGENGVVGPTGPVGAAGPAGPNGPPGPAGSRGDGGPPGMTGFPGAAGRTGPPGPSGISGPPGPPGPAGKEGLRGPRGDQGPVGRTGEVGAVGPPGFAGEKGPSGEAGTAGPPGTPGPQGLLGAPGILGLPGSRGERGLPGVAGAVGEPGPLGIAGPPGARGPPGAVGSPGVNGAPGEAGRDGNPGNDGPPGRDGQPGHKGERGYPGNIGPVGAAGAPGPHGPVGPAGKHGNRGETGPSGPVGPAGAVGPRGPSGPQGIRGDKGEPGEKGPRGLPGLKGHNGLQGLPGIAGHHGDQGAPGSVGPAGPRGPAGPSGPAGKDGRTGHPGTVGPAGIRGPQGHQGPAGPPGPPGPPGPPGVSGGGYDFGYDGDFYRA
Experimental: as §1

[3] = Turbidimetry binding analysis of TA and heparin sulfate; conditions: HS 0.24 mg/mL, TA 17 mg/mL, 1:1
Experimental: as §1

[4] = Turbidimetry binding analysis of TA and hyaluronic acid; conditions: HA 0.24 mg/mL, TA 17 mg/mL, 1:1
Experimental: as §1

type I collagen [5] = molecular target: T2, type I collagen; experiment: SPR binding analysis of TA and type I collagen; conditions: surface adsorbed with collagen, TA 2 mg/mL
Experimental: (§2) For SPR analysis, each solution of elastin, type I collagen (10 μg/mL) and TA (2 mg/mL) was prepared by diluting them in PBS (pH 7.3). All the solutions were filtered with 0.2 μm microfilter (Millipore, USA). Each protein (elastin or type I collagen) was adhered on Biacore gold (Au) sensor chip for 600 seconds. The chip was washed for 10 minutes to eliminate such samples attached weakly thereon. SPR analysis was performed at the flow rate of 10 μl/min using PBS as a flow buffer.

elastin [6] = molecular target: T1, elastin; experiment: SPR binding analysis of TA and elastin; conditions: surface adsorbed with elastin, TA 2 mg/mL
Experimental: as §2

elastin [7] = molecular target: T1, elastin; experiment: ITC binding analysis of TA and elastin
Experimental: Elastin (210 μg/mL) and TA (2.5 mg/mL) solutions were used for ITC analysis. Elastin was placed in a sample cell. The TA solution was placed in a syringe, which was injected to the elastin in the sample cell (250 μl) (50 sequential injections, 5 μl per injection) for titration (with stirring at 350 rpm). Time interval was set at 180 seconds for subsequent injection, and raw data was processed using Microcal Origin (Microcal Software, Northampton, USA).

[8] = system: myocardial ischemia reperfusion (MIR); experiment: Infarct size (TTC staining) in MIR animal model after intravenous bFGF; format: in vivo, rats (SD rats); conditions: MIR rats, 28 days after injection
Experimental: Particularly, rats (SD rats, 8 weeks old, male, 230-270 g) were anesthetized with a mixture of isoflurane (3 cc min^-1), Rompun, xylazine (1 mg kg^-1) and oxygen in an induction chamber. Then, the rats were intubated and a mixture of isoflurane and oxygen was allowed to flow at a rate of 1 cc min^-1. The rat heart was exposed through left thoracotomy, followed by occulusion for 10 minutes. The suture line was quickly loosened to resume blood flow through the left anterior descending artery (LAD). […] Upon completion of the hemodynamic evaluation, the heart was separated and immersed in warm PBS ( 37° C.) to eliminate blood residues. Then, the heart was quickly frozen at -20° C., and the frozen heart was sliced lengthwise approximately 2 mm away the apex. The slice was placed on a cell culture dish, which was treated with 1% TTC (triphenyltetrazolium chloride) dissolved in PBS at 37° C. for 15 minutes. After staining, the heart slice was photographed with a scanner. Then, live tissues stained with red and necrotic tissues non-stained and thus presented as white were distinguished. The size of the infarct area was measured digitally using ImageJ software, and the results are presented as %.

[9] = system: myocardial ischemia reperfusion (MIR); experiment: In vivo hemodynamic evaluation of left ventricular function in MIR animal model; design: species or system rats (SD rats); conditions: MIR rats; for EDP / EDV / ESP / ESV / Ea / HR / SW / Tau: 5 μg i.v., 28 days
Experimental: Particularly, rats (SD rats, 8 weeks old, male, 230-270 g) were anesthetized with a mixture of isoflurane (3 cc min^-1), Rompun, xylazine (1 mg kg^-1) and oxygen in an induction chamber. Then, the rats were intubated and a mixture of isoflurane and oxygen was allowed to flow at a rate of 1 cc min^-1. The rat heart was exposed through left thoracotomy, followed by occulusion for 10 minutes. The suture line was quickly loosened to resume blood flow through the left anterior descending artery (LAD). […] 28 days after the injection, in vivo hemodynamic evaluation was performed to investigate the left ventricular function using […]500 (Transonic, USA) outputting data to LabScribe data collection software (iWorx/CB Sciences, USA).

[10] = Size of tannylated SP (particle size analyzer); format: physicochemical; conditions: [SP]/[TA] ratio of 20 or 10
Experimental: The mixed solutions with the [SP]/[TA] ratios of 20, 10, 5, 1 and 0.5 prepared to produce tannylated SP in Example 2 were observed by naked eye. Then, the size of tannylated SP ([SP]/[TA] ratio=20 and 10, volume=1 mL) was analyzed using a particle size analyzer (Zetasizer nano-ZS, Malvern instrument, UK).

[11] = 5 μg i.v., non-treated control 51%

Row | Molecule | infarct size [8, 11] | EDP [9] [mmHg] | EDV [9] [µL] | ESP [9] [mmHg] | ESV [9] [µL] | Ea [9] [mmHg/μL] | HR [9] [bpm] | SW [9] [mmHg · mL · kg] | Tau [9] [ms] | other results
1 | O=C(OC[C@H]1O[C@@H](OC(=O)c2cc(O)c(O)c(OC(=O)c3cc(O)c(O)c(O)c3)c2)[C@H](OC(=O)c2cc(O)c(O)c(OC(=O)c3cc(O)c(O)c(O)c3)c2)[C@@H](OC(=O)c2cc(O)c(O)c(OC(=O)c3cc(O)c(O)c(O)c3)c2)[C@@H]1OC(=O)c1cc(O)c(O)c(OC(=O)c2cc(O)c(O)c(O)c2)c1)c1cc(O)c(O)c(OC(=O)c2cc(O)c(O)c(O)c2)c1 [tannic acid] |  |  |  |  |  |  |  |  |  | turbidity (A600) of elastin solution after addition of TA (elastin [1]): 1.219±0.022; turbidity (A600) of collagen solution after addition of TA (type I collagen [2]): 0.173±0.022; turbidity change of HS solution after addition of TA [3]: no turbidity change was observed; turbidity change of HA solution after addition of TA [4]: no turbidity change was observed; SPR ΔRU value (type I collagen [5]): 793; SPR ΔRU value (elastin [6]): 1319; [TA]/[elastin] ratio of first step (TA conjugated with elastin inter-molecularly) (elastin [7]; ITC): up to 20; [TA]/[elastin] ratio of second step (inter-TA/elastin complexes conjugated each other) (elastin [7]; ITC): ≥ 30; ITC thermodynamics of binding between TA and elastin (elastin [7]; elastin 210 μg/mL, TA […]): exothermic interaction
2 | bFGF: basic fibroblast growth factor, SEQ ID NO: 1 | 31% | 8.5 ± 0.9 | 365.3 ± 27.5 | 85.3 ± 1.7 | 254.5 ± 13.8 | 0.86 ± 0.12 | 316.5 ± 12.9 | 1.51 ± 0.14 | 11.7 ± 0.5 | infarct size ([8]; 25 μg i.v.): not much different from when 5 μg of bFGF was administered
3 | tannylated SP: substance P (SEQ ID NO: 2, RPKPQQFFGLM) mixed with tannic acid solution at [SP]/[TA] ratios 0.5-20 |  |  |  |  |  |  |  |  |  | size of complex [10]: up to 1 μm
4 | tannylated bFGF: bFGF (SEQ ID NO: 1) mixed with TA solution, stoichiometric molar ratio [TA]/[bFGF] of 143 | approximately 16% | 9.8 ± 1.6 | 295.9 ± 23.3 | 103.8 ± 4.6 | 133.9 ± 19.5 | 0.77 ± 0.14 | 322.7 ± 18.0 | 3.00 ± 0.53 | 11.7 ± 1.1 | hemodynamic functional values (left ventricular pressure, stroke volume, cardiac output, ventricular contractility index) ([9]; i.v., 28 days after injection, versus sham group): recovered all the hemodynamic functional values
